In patent publication US8877773B2, “Methods for treating chronic obstructive pulmonary disease” (Indiana University Research and Technology Corporation, priority 2009, dated 2014):
Entries after “also recorded” stand apart in the source; their conditions may differ.

Key:
Type in all cases: in vivo, rat
[1] = tested on: Orexin A (ORX-A) producing neurons in the DMH/PeF; assay: c-Fos induction in ORX neurons of 1-AG and d-AG treated rats; conditions: 1-AG infused into DMH/PeF (3.5 nmol/0.5 μl per hour); vs d-AG treated control rats
Description: Methods for perfusion and for verification of cannulae placements in experiment 12 were performed following procedures discussed herein. Briefly, 1-AG or d-AG treated rats received i.v. infusions of either lactate or saline vehicle over 15 min (n=6/group for 4 groups), were immediately tested in the SI test, then anesthetized and perfused with a 4% paraformaldehyde/1.5% sucrose solution and processed for immunohistochemistry 90 min following the onset of the i.v. infusions.
Brain sections from all rats were immunostained with the appropriate primary antibody in a single immunohistochemical run, rather than in batches, with large volume incubations to limit variability in the quality of immunohistochemical staining among brain sections.
Sections were washed in PBS and then incubated in 1% H2O2 in PBS for 20 min. Sections were washed in PBS then PBST then incubated 12-16 h in PBST with primary antibody. The following day, sections were incubated 2 h in the appropriate secondary antibody: biotinylated swine anti-rabbit IgG (c-Fos day 1, and orexin A or MCH day 2; cat no. E0353; DAKO, diluted 1:200). Sections were washed again for 30 min in PBST then incubated 1.5 h in an avidin-biotin-peroxidase complex (cat no. PK-6100, Vector Labs, diluted 1:200). […]

[2] = tested on: c-Fos; assay: c-Fos immunoreactive cell counts in brain regions after FG-7142 challenge; conditions: FG-7142 7.5 mg/kg ip after vehicle (veh/FG) or SB334867 30 mg/kg ip (SB/FG); 90 min
Description: Fifteen min after the FG-7142 injection, all rats were tested for anxiety behavior using a 5 min open field test (OFT); 5 min social interaction (SI) test; then a 5 min elevated plus maze (EPM) test. Ninety min following FG-7142 injections, rats were anaesthetized and then the brains were removed and processed for immunohistochemistry as described in detail in subsequent section.
Ninety min following the initiation of treatment, rats were anaesthetised with an overdose of sodium pentobarbital (40 mg, i.p.) then perfused transcardially with 0.05 M phosphate buffered saline (PBS; 250 ml), followed by 0.1 M sodium phosphate buffer (PB; 250 ml) containing 4% paraformaldehyde (PFA) and 3% sucrose. Brains were removed and post-fixed for 24 h in the same fixative, rinsed for 24 h in 0.1 M PB, then placed in cryoprotectant (30% sucrose in 0.1 M PB) for an additional 4-5 days. To maintain a consistent plane for coronal sections, brains were placed in a rat brain matrix (ASI instruments, Model No. RBM-4000C) and cut with a razor blade at the caudal border of the mammillary bodies. Brains were frozen in cooled liquid isopentane made by immersing a plastic vessel containing isopentane into a dewar flask containing liquid nitrogen. Serial coronal sections (30 μm) were cut using a cryostat and were immediately placed in cryoprotectant consisting of 27% ethylene glycol and 16% glycerol in 0.05 M PB to yield six alternate sets of sections. Sections were stored at −20° C. until immunohistochemical processing.
All brain sections were immunostained with the c-Fos primary antibody in a single immunohistochemical run, rather than in batches, with large volume incubations to limit variability in the quality of immunohistochemical staining among brain sections. However, the forebrain was immunostained for c-Fos in one run and the brainstem (i.e., midbrain, pons and medulla) in another. Immunostaining for c-Fos protein was accomplished using an affinity-purified primary antibody directed at c-Fos (rabbit anti-human c-Fos polyclonal affinity-purified antibody, Cat. no. sc-52, Santa Cruz Biotechnology, San Diego, Calif.; diluted 1:10,000). Free-floating sections were washed in 0.1 M PBS for 30 min, then incubated in 1% H2O2 in PBS for 20 min. Sections were then washed 10 min in PBS and 20 min in PBS with 0.3% Triton X-100 (PBST). Sections were then incubated 12-16 h in PBST with primary antibody solution at room temperature. After a 30 min wash in PBST, sections were incubated for 2 hr in biotinylated goat anti-rabbit IgG (Cat no. BA-1000, Vector Laboratories, Burlinghame, Calif.; diluted 1:500). Sections were washed again for 30 min in PBST then incubated 1.5 hr in an avidin-biotin-peroxidase complex provided in a standard Vector Elite kit (Cat no. PK-6100, Vector Laboratories, diluted 1:200). The peroxidase substrate for the chromogen reaction was Vector SG, which was prepared as recommended by the manufacturer (Cat. no. SK-4700, Vector Laboratories). The substrate reaction was run for 20 min for the forebrain. All sections were mounted on clean glass slides, dried overnight, dehydrated and mounted with coverslips using DPX mounting medium (BDH Laboratory Supplies, Poole, UK). All washes and incubations were done at room temperature in 12-well polystyrene plates with low frequency shaking on an orbital shaker.
Selection of anatomical levels for analysis of c-Fos-immunostained cells was conducted with reference to illustrations from a rat brain stereotaxic atlas (Paxinos and Watson, 1997). Selection of anatomical levels was also done in reference to major anatomical landmarks including white matter tracts and the ventricular systems.

[3] = tested on: FG-7142 treated rats; assay: FG-7142-induced anxiety: open field, social interaction and elevated plus maze tests; conditions: Wistar rats; FG-7142 7.5 mg/kg ip, with or without SB334867 30 mg/kg ip
Description: All experiments were conducted on adult male Wistar rats (250-300 g) purchased from Harlan Laboratories (Indianapolis, Ind. USA) and were housed individually in plastic cages under standard environmental conditions (22° C.; 12/12 light/dark cycle; lights on at 7:00 A.M.) for 7-10 days prior to the surgical manipulations. Food and water were provided ad libitum.
The open-field arena covered an area of 90 cm×90 cm, with 40 cm high walls. The open-field arena was divided into a 6×6 grid of equally-sized squares using black tape (36 total squares) with 4 squares forming the centre; 12 squares forming the middle perimeter; and 20 squares forming the outer perimeter. The test started by placing a rat in the centre. The behavior of each rat in the open-field arena was recorded on video and scored afterwards by an observer blind to the experimental treatment of each rat. Time spent in each region of the open-field was recorded. In addition, locomotor activity was assessed by counting the number of times the rat's entire body (excluding tail) completely crossed into another square.
Following the OFT, the experimental rat was placed in an open field (0.9 m long×0.9 m wide with walls 0.3 m high) with an untreated novel partner rat. A video camera was fixed above the box, and all behavioral tests were videotaped. During the 5 min test the total amount of time the treated rat initiates interaction with the partner rat is recorded (sniffing, grooming etc.) as described previously. Videotaped sessions were scored at a later time by a SDF (blind to treatments) and a decrease in total interaction time was taken as an increase in “anxiety” like behavior.
Following the SI test, rats were place in the center area of the EPM where the two arms intersect. Unlike the SI test, the EPM measures many relevant anxiety related behaviors such as: no. of poke and full entries into and duration spent in closed versus open arm. […] Activity is measured using […] state of the art photobeams (16× beams and 16 Y beams) to provide the highest resolution system available (Automated EPM, Hamilton Kinder Scientific, San diego, CA).

[4] = tested on: panic-prone (1-AG treated) rats; assay: Sodium lactate (NaLac) challenge in panic-prone (1-AG treated) rats: social interaction (SI) test; conditions: alprazolam 3 mg/kg; for anxiety-like responses (social interaction (SI) duration) after NaLac challenge: i.p. 30 min prior to NaLac, SB334867/SB408124 30 mg/kg, experiments 4 and 6
From the text: (§1) The minipump was then sutured into place subcutaneously at the nape of the neck. The concentration of the solutions was such that 3.5 nmol/[…] per hour of 1-AG or d-AG was infused continuously into the DMH/PeF region for the remainder of the given experiment. In the case of the siRNA experiments specialized T-cannulae were implanted permitting access to a removable 28 g injector to direct siRNA injections to the same location as the 1-AG infusions. Additionally these rats had guide cannulae directed to the opposite DMH/PeF for bilateral infusion of siRNA.
(§2) Rats received intravenous (i.v.) infusions (10 ml over 15 min of either 0.5M NaLac or 0.9% isotonic saline (when applicable)) using a syringe pump at least five days following the initiation of 1-AG or d-AG infusions. Once a stable baseline was achieved, i.v. infusions began and cardiovascular and activity data were recorded for 15 min (similar to clinical NaLac infusions).
Another SI test was performed 5 days following minipump infusions and immediately following saline or sodium lactate infusions.
In experiment 3, an RNAase free environment was maintained throughout the injection procedure and all injectors, syringes and tubing were exposed to RNaseZAP and rinsed thoroughly with RNA-free water prior to siRNA injections. […] 48 hrs after siORX or siCON treatment, these rats were exposed to saline or NaLac infusions (siCon/Sal n=4, siORX/Sal n=6, siCON/Lac n=5, siORX/Lac n=6) and SI behavioral and cardiovascular responses were recorded, and were then sacrificed by rapid decapitation, following a brief (30 s) exposure to IsoFlurane® 1 hr after the intravenous infusions.
In experiments 4-6, rats were made panic vulnerable with 1-AG. […] In experiment 5, baseline in an open field (OF) behavior test of anxiety was assessed (n=8) prior to 1-AG infusions. […] In experiment 7, control rats (no 1-AG or NaLac treatment) were assessed in a SI test. […]

[5] = tested on: panic-prone (1-AG treated) rats; assay: Sodium lactate (NaLac) challenge in panic-prone rats: radio-telemetry of locomotor and cardiovascular (HR, MAP) responses; conditions: i.p. 30 min prior to NaLac, SB334867/SB408124 30 mg/kg, alprazolam 3 mg/kg, experiments 4 and 6
Description: Telemetry probes (Data Science International, St. Paul Minn.) were surgically implanted into the abdomen of anaesthetize rats to measure locomotor responses. Cardiovascular responses were measured by a femoral arterial line connected to the telemetric probe which contained a pressure transducer (Data Science International, St. Paul Minn.).
as §1, §2
Cardiovascular responses (i.e., MAP and HR) were measured by a femoral arterial line connected to a telemetric probe which contained a pressure transducer (Cat. no. C50-PXT, Data Science International (DSI) St. Paul Minn.). […] MAP and HR were recorded continuously in freely moving conscious rats and are expressed as a 20 min time course. The data reported are changes in HR and MAP from the average of the baseline (t−5 to t−1) from each rat. […]
In experiments 4-6, rats were made panic vulnerable with 1-AG. 5 days after 1-AG onset, in a counterbalanced design, rats received intraperitoneal (i.p.) injections of treatment drug or vehicle 30 min prior to i.v. infusions. […] In experiment 5, baseline in an open field (OF) behavior test of anxiety was assessed (n=8) prior to 1-AG infusions. […] Immediately following the NaLac challenge, rats were placed in the OF test. […] In experiment 6,1-AG treated rats received an injection of an alternative ORX1 receptor antagonist (30 mg/kg SB408124 (N-(6,8-Difluoro-2-methyl-4-quinolinyl)-N′-(4-(dimethylamino)phenyl)urea), Tocris, in 0.2 ml/100 g volume DMSO, n=4) or vehicle (0.2 ml/100 g volume DMSO, n=6) 30 min prior to NaLac. In experiment 7, control rats (no 1-AG or NaLac treatment) were assessed in a SI test.
Adult male Sprague-Dawley rats were anesthetized and surgically implanted with telemetrical probes to measure cardiovascular activity prior to and during lactate infusions. After a 3 day recovery, rats were anaesthetized and had osmotic minipumps (previously filled with 1-AG) stereotaxically implanted unilaterally into the DMH. […] 1960, Tocris, in 0.2 ml/100 g volume DMSO, n=12], alprazolam (3 mg/kg, Sigma, in 0.2 ml/100 g volume DMSO, n=6) or vehicle (0.2 ml/100 g volume DMSO, n=11) 30 min prior lactate challenge.

In the case of C=CC[C@H](N)C(=O)O [1-AG, 1-allylglycine], the “c-Fos immunoreactive ORX-A neurons in the DMH/PeF” value [1] is reported as “increased”.

In the case of CNC(=O)c1cc2c(cn1)[nH]c1ccccc12 [FG-7142], the “Mean number of c-Fos immunoreactive cells, Amygdala (−2.56 mm bregma) BLA” value [2] is reported as 9 ± 4, the “Mean number of c-Fos immunoreactive cells, Amygdala (−2.56 mm bregma) LA” value [2] is reported as 10 ± 4 and the “Mean number of c-Fos immunoreactive cells, Amygdala (−2.56 mm bregma) MeA” value [2] is reported as 85 ± 18. The “Mean number of c-Fos immunoreactive cells, DRN (−7.80 mm bregma)” value [2] was 1 ± 0, the “Mean number of c-Fos immunoreactive cells, ILC (+2.60 mm bregma)” value [2] was 12 ± 6 and the “Mean number of c-Fos immunoreactive cells, IPBN (−9.30 mm bregma)” value [2] was 9 ± 3. For the same molecule, the “Mean number of c-Fos immunoreactive cells, LC (−10.04 mm bregma)” value [2] was 48 ± 5, the “Mean number of c-Fos immunoreactive cells, LSI (+0.20 mm bregma)” value [2] was 12 ± 4 and the “Mean number of c-Fos immunoreactive cells, PRL (+2.60 mm bregma)” value [2] was 3 ± 1. The “Mean number of c-Fos immunoreactive cells, PeF (−3.14 mm bregma)” value [2] was 67 ± 23, the “Mean number of c-Fos immunoreactive cells, mPBN (−9.30 mm bregma)” value [2] was 3 ± 1 and the “time in open arms of elevated plus maze” value [3] was “low open arm times”.

With Cc1cc(NC(=O)Nc2ccc(N(C)C)cc2)c2cc(F)cc(F)c2n1 [SB408124, N-(6,8-Difluoro-2-methyl-4-quinolinyl)-N′-(4-(dimethylamino)phenyl)urea] the “anxiety-like responses (social interaction (SI) duration) after NaLac challenge” value [4] was “did not significantly alter”, the “NaLac induced increases in general locomotor activity” value [5] was “did attenuate; also recorded: attenuated” and the “NaLac induced increases in heart rate (HR)” value [5] was “did attenuate; also recorded: attenuated”. The “NaLac induced increases in mean arterial blood pressure (MAP)” value [5] was “did not significantly alter”.

For Cc1nnc2n1-c1ccc(Cl)cc1C(c1ccccc1)=NC2 [alprazolam], the “anxiety-like responses (social interaction (SI) duration) after NaLac challenge” value [4] was “attenuated”, the “all lactate induced panic-like responses (SI, Activity, HR, MAP)” value ([4]; i.p. 30 min prior to lactate, SB334867 30 mg/kg) was “attenuated; also recorded: anti-panic effects” and the “NaLac induced increases in general locomotor activity” value [5] was “attenuated”. The “NaLac induced increases in heart rate (HR)” value [5] was “attenuated” and the “NaLac induced increases in mean arterial blood pressure (MAP)” value [5] was “attenuated”.
